In paper PMC10263119, “WSD-0922, a novel brain-penetrant inhibitor of epidermal growth factor receptor, promotes survival in glioblastoma mouse models” (Neuro-Oncology Advances, 2023):

Assays:
Format in all cases: biochemical
LYNa = target: T1, LYNa (Homo sapiens, UniProt P07948); experiment: in vitro kinase inhibition, single concentration ([…]); settings: read-out: %Inhibition (1 μM WSD-0922)
T1 construct: gene LYN

EGFR = EGFR (Homo sapiens, UniProt P00533); experiment: cell-free in vitro kinase inhibition assay; kinetic data
EPHA1 = target: T2, EPHA1 (Homo sapiens, UniProt P21709); experiment: in vitro kinase inhibition, single concentration ([…]); settings: read-out: %Inhibition (1 μM WSD-0922)
T2 sequence (P21709 26-976): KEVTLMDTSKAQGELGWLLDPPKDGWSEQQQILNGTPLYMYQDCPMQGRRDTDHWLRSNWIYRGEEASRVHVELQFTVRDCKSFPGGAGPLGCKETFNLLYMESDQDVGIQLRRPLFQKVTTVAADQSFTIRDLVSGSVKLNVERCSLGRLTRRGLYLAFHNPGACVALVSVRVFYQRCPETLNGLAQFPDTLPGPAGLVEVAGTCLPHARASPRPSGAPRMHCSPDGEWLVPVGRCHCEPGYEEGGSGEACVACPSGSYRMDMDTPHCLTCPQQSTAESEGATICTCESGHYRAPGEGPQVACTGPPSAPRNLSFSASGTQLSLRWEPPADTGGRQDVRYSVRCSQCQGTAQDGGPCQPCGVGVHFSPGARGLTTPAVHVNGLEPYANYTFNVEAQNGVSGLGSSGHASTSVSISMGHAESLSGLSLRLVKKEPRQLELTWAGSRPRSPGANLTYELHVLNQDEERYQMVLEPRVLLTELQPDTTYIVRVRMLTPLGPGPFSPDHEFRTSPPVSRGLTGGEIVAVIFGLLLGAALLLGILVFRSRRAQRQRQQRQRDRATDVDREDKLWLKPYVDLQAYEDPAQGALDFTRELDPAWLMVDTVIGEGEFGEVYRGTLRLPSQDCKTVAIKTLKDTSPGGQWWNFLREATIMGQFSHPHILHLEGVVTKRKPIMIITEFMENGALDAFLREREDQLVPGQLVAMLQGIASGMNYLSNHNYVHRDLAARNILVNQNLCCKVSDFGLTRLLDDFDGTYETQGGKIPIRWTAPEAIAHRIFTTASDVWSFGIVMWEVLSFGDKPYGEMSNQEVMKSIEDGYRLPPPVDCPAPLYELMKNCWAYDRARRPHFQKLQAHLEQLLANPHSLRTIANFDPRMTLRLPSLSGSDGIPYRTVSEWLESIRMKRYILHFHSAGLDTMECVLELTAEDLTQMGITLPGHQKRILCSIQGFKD

LCK = LCK (Homo sapiens, UniProt P06239); experiment: as above; settings: read-out: %Inhibition (1 μM WSD-0922)
HCK = HCK (Homo sapiens, UniProt P08631); experiment: as above; settings: read-out: %Inhibition (1 μM WSD-0922)
SRC = SRC (Homo sapiens, UniProt P12931); experiment: as above; settings: read-out: %Inhibition (1 μM WSD-0922)
HER4 = target: T3, HER4 (Homo sapiens, UniProt Q15303); experiment: as above; settings: read-out: %Inhibition (1 μM WSD-0922)
T3 construct: gene ERBB4
T3 sequence (Q15303 26-1308): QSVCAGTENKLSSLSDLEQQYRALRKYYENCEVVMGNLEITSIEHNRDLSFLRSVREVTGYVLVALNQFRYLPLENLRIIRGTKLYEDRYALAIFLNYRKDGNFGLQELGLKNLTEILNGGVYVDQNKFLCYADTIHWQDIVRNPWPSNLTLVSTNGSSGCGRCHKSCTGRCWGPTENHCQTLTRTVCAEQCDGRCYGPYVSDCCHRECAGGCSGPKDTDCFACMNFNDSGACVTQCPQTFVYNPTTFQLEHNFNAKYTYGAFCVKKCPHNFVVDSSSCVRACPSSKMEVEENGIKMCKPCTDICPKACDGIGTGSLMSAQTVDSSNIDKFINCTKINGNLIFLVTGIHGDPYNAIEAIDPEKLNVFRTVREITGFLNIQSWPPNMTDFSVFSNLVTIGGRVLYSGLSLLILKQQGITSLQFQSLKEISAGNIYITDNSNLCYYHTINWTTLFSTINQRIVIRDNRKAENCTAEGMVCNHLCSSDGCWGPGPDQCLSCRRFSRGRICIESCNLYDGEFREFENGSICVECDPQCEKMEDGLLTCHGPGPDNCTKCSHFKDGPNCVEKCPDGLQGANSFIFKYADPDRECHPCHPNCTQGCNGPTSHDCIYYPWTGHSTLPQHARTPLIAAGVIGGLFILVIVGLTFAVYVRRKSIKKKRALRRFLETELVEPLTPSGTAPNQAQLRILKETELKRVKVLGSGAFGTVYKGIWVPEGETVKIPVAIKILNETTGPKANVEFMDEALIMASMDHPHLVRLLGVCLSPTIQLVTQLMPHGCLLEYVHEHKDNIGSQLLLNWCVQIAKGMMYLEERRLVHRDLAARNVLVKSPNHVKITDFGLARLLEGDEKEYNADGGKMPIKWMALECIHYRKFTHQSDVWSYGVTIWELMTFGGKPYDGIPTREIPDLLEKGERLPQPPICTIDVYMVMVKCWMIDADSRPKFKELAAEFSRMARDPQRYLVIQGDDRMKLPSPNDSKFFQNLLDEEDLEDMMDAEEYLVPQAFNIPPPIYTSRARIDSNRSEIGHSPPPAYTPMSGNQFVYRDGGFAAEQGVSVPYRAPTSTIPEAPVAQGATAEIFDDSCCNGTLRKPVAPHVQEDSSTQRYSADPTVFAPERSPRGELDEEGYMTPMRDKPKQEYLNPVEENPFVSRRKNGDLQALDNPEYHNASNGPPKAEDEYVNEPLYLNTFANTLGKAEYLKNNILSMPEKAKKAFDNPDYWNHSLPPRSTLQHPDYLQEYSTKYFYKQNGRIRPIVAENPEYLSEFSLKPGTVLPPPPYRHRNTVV

LCK, sequence (P06239 2-509): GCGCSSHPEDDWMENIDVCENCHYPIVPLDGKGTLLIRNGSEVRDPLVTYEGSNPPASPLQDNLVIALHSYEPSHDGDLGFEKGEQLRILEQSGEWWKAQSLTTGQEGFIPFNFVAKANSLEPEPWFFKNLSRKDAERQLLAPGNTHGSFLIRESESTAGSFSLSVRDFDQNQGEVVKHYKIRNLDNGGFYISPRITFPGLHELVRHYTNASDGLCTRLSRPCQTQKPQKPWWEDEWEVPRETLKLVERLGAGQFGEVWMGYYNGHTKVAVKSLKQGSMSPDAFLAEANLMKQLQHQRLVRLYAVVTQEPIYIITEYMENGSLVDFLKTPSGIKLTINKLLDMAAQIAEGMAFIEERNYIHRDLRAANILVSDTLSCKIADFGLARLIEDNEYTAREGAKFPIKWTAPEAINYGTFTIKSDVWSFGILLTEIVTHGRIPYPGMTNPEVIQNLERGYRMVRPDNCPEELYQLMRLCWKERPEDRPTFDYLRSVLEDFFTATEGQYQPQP
EGFR, sequence (P00533 25-1210): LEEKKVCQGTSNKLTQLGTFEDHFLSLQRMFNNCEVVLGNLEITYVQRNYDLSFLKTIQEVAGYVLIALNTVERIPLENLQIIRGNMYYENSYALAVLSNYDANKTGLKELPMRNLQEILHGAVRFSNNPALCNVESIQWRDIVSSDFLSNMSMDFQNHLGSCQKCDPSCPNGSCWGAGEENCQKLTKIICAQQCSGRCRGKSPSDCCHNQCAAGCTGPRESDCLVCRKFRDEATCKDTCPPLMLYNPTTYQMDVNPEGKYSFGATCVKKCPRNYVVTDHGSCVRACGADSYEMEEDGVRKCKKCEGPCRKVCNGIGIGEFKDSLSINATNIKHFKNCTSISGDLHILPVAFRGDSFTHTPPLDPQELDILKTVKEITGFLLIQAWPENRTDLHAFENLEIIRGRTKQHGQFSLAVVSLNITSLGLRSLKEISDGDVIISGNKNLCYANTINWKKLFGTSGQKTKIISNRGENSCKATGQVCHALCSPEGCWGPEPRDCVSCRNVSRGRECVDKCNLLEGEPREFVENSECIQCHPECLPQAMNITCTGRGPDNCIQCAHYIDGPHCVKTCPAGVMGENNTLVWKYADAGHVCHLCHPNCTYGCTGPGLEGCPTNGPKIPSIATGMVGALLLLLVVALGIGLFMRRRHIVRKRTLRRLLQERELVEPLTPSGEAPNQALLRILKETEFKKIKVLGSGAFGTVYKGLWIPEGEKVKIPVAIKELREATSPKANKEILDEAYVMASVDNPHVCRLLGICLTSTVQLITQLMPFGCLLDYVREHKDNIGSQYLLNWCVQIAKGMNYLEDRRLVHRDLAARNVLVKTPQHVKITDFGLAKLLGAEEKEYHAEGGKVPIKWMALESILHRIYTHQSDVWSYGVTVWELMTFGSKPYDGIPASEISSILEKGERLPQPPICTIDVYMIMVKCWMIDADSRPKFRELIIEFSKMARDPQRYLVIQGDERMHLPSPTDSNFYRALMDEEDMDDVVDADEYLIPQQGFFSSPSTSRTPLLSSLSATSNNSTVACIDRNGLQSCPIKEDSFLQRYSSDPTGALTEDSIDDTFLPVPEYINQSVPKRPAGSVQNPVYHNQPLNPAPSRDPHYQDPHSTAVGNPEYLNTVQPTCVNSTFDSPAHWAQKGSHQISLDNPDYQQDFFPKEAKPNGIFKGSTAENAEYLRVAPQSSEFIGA
SRC, sequence (P12931 2-536): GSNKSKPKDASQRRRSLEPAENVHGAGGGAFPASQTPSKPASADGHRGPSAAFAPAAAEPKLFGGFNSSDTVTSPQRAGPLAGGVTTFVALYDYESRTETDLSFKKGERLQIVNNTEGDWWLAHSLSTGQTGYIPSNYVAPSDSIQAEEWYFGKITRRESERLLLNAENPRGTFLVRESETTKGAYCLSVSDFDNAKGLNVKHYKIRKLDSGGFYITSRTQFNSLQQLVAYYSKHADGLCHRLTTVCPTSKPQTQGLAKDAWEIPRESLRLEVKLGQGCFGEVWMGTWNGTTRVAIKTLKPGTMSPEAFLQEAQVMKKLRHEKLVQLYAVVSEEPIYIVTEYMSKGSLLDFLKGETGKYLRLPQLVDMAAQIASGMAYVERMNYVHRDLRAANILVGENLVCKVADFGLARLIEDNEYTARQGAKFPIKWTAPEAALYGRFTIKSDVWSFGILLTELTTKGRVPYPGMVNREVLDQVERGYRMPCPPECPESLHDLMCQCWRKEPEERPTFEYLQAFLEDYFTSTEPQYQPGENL
T1 sequence (P07948 2-512): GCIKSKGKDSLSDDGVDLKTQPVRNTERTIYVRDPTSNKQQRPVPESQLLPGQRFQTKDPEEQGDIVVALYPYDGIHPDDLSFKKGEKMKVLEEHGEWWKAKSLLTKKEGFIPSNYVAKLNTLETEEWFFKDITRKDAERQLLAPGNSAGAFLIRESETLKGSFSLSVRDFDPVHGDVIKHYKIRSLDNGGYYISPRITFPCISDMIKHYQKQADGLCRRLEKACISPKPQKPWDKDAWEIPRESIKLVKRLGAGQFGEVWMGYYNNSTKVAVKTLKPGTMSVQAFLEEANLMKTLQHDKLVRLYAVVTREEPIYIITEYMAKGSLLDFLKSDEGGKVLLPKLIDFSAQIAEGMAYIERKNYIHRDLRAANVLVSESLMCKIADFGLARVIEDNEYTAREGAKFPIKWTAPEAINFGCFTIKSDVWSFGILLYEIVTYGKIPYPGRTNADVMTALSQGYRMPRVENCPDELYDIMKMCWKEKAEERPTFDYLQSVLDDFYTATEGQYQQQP
HCK, sequence (P08631 2-526): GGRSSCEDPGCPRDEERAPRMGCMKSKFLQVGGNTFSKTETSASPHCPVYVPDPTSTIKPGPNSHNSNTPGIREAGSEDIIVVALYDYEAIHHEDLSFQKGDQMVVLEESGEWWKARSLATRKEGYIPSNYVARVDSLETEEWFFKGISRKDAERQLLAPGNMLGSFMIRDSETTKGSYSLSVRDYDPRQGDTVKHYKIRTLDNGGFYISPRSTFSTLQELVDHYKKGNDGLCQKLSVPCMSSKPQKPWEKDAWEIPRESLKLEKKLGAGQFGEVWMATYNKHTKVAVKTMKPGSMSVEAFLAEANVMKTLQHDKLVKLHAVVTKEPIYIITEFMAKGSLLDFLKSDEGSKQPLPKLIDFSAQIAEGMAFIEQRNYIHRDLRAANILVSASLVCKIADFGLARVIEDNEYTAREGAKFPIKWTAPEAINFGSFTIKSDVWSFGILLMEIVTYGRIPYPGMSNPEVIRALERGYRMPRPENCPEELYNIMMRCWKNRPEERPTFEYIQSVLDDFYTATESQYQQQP

inhibition at 1 µM (LYNa): 70.9% | IC50 (EGFR): 0.056 nM | inhibition at 1 µM (EPHA1): 55.4% | inhibition at 1 µM (LCK): 46.2% | inhibition at 1 µM (HCK): 49.7% | inhibition at 1 µM (SRC): 39.5% | inhibition at 1 µM (HER4): 69.8%
Compound: C#Cc1cccc(Nc2ncnc3cc(OC)c(O[C@@H]4CCN(C)CC4(F)F)cc23)c1F [WSD-0922]
